Common to all, as to type: cell-based, human
Experiment [1] has as its system HTT mRNA. Description: RT-qPCR splicing assay, HTT canonical (CJ) and alternative (AJ) junction mRNA. Particulars: for AC50: read-out: HTT AJ (AC50, increase in AJ mRNA). In outline:
(§1)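 24 h compound exposure of A673 or K562 cells at 37 °C, 10 uM top final concentration, 3-fold steps, DMSO ≤0.25%. Splice-isoform levels determined by qPCR on cDNA from lysates, run at least in duplicate; values expressed as RQ normalized to GAPDH, GUSB or PPIA and DMSO.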

Experiment [2] has as its system MYB mRNA. As to the kind of experiment: RT-qPCR splicing assay, MYB canonical (CJ) and alternative (AJ) junction mRNA. Particulars: for AC50: read-out: MYB AJ (AC50, increase in AJ mRNA). The essentials: as §1
Experiment [3] deals with Target C mRNA. As to the kind of experiment: RT-qPCR splicing assay panel, Target C canonical junction (CJ) mRNA. The following applies: Homo sapiens, canonical junction (CJ) mRNA, RT-qPCR panel, Table 4A; read-out: Target C, decrease in CJ mRNA levels, IC50. The essentials: as §1
For experiment [4], the system named is SMN2 mRNA. As to the kind of experiment: RT-qPCR splicing assay panel, SMN2 canonical junction (CJ) mRNA. The following applies: canonical junction (CJ) mRNA, RT-qPCR panel, Table 4A, read-out: SMN2, decrease in CJ mRNA levels, IC50. The essentials: as §1
Where [5] appears, read: Table 3A, A673 or K562 cells, 24 h treatment.
Setting [6] is: Homo sapiens, 24 h, Table 3A, A673 or K562 cells, 24 h treatment.
[7] abbreviates: Homo sapiens, 24 h, Table 3A, A673 or K562 cells, 24 h treatment, read-out: HTT CJ (IC50, decrease in CJ mRNA).
The mark [8] stands for this setting: Homo sapiens, canonical junction (CJ) mRNA, RT-qPCR panel, Table 4A, read-out: HTT, decrease in CJ mRNA levels, IC50.
[9] abbreviates: Homo sapiens, 24 h, Table 3A, A673 or K562 cells, 24 h treatment, read-out: MYB CJ (IC50, decrease in CJ mRNA).
The mark [10] stands for this setting: Homo sapiens, canonical junction (CJ) mRNA, RT-qPCR panel, Table 4A, read-out: MYB, decrease in CJ mRNA levels, IC50.

Structures are written as SMILES. Read-outs that look alike come from different tables or passages of the source. Where only a bound is given, the exact number is not on record here.

Consider `Cc1nc(-c2ccc(-c3ccc(N4CCC(NC5CCC5)C4)nn3)c(O)c2)cs1` (stereo not shown) [Compound 412], for which the AC50 in experiment [1] (setting [5]) and in experiment [2] (setting [5]) was above 10 µM throughout. Further, the IC50 in experiment [1] (Table 3A, A673 or K562 cells, 24 h treatment, read-out: HTT CJ (IC50, decrease in CJ mRNA)) is above 10 µM; in experiment [1] (canonical junction (CJ) mRNA, RT-qPCR panel, Table 4A, read-out: HTT, decrease in CJ mRNA levels, IC50), above 10 µM; in experiment [2] (Table 3A, A673 or K562 cells, 24 h treatment, read-out: MYB CJ (IC50, decrease in CJ mRNA)), above 10 µM; in experiment [2] (canonical junction (CJ) mRNA, RT-qPCR panel, Table 4A, read-out: MYB, decrease in CJ mRNA levels, IC50) it was above 10 µM; in experiment [3] it was above 10 µM; in experiment [4], above 10 µM.

Regarding `COCCc1cc(-c2ccc(-c3ccc(N4CCC(NC5CCC5)C4)nn3)c(O)c2)cnn1` (stereo not shown) [Compound 430], the AC50 in experiment [1] (setting [6]) and in experiment [2] (setting [6]) was above 10 µM each time. Moreover, the IC50 in experiment [1] (setting [7]), in experiment [1] (setting [8]), in experiment [2] (setting [9]), in experiment [2] (setting [10]), in experiment [3] and in experiment [4] (Homo sapiens) was above 10 µM each time.

As for `Cc1ccc(-c2cc(O)c(-c3ccc(N4CC[C@H](NC5CCC5)C4)nn3)cc2F)cn1` [Compound 223, 2-{6-[(3S)-3-(cyclobutylamino)pyrrolidin-1-yl]pyridazin-3-yl}-4-fluoro-5-(6-methylpyridin-3-yl)phenol], the AC50 in experiment [1] (setting [6]) and in experiment [2] (setting [6]) was 0.1 to 1 µM throughout. Besides, the half-maximal inhibitory concentration (IC50) was in the range of 0.1 to 1 µM in experiment [1] (setting [7]); 0.1 to 1 µM in experiment [1] (setting [8]); 0.1 to 1 µM in experiment [2] (setting [9]); 0.1 to 1 µM in experiment [2] (setting [10]); 1 to 10 µM in experiment [3]; 0.1 to 1 µM in experiment [4] (Homo sapiens).

In the case of `CCN(C1CCC1)[C@@H]1CCN(c2ccc(-c3ccc(-c4cnnc(OC)c4)cc3O)nn2)C1` [Compound 290, 2-{6-[(3R)-3-[cyclobutyl(ethyl)amino]pyrrolidin-1-yl]pyridazin-3-yl}-5-(6-methoxypyridazin-4-yl)phenol], the concentration at half-maximal activity (AC50) in experiment [1] (setting [6]) and in experiment [2] (setting [6]) was 0.1 to 1 µM in each case. Further, the concentration for half-maximal inhibition (IC50) is 0.1 to 1 µM in experiment [1] (setting [7]); 0.1 to 1 µM in experiment [1] (setting [8]); 0.1 to 1 µM in experiment [2] (setting [9]); 0.1 to 1 µM in experiment [2] (setting [10]); 0.1 to 1 µM in experiment [3]; below 0.1 µM in experiment [4] (Homo sapiens).

As for `Cc1nnc(-c2cc(O)c(-c3ccc(N4CC[C@@H](NCC5CC5)C4)nn3)cc2F)s1` [Compound 402], the figures for the AC50 in experiment [1] (setting [6]) and in experiment [2] (setting [6]) were 0.1 to 1 µM and 1 to 10 µM, respectively. For the same compound, the concentration for half-maximal inhibition (IC50) in experiment [1] (setting [7]) fell in the range of 0.1 to 1 µM; in experiment [1] (setting [8]), 0.1 to 1 µM; in experiment [2] (setting [9]) it was 1 to 10 µM; in experiment [2] (setting [10]) it was 1 to 10 µM; in experiment [3], 1 to 10 µM; in experiment [4] (Homo sapiens), 0.1 to 1 µM.

For `Cc1nc2ccc(-c3ccc(-c4ccc(N5CCC(NC6CCC6)C5)nn4)c(O)c3)cc2o1` (stereo not shown) [Compound 316], the concentration at half-maximal activity (AC50) in experiment [1] (setting [6]) and in experiment [2] (setting [6]) was 0.1 to 1 µM throughout. Further, the half-maximal inhibitory concentration (IC50) lay in the range of 0.1 to 1 µM in experiment [1] (setting [7]); 0.1 to 1 µM in experiment [1] (setting [8]); 1 to 10 µM in experiment [2] (setting [9]); 1 to 10 µM in experiment [2] (setting [10]); 0.1 to 1 µM in experiment [3]; 0.1 to 1 µM in experiment [4] (Homo sapiens).

As for `COc1cc(-c2ccc(-c3ccc(N4CC[C@@H](N[C@H]5C[C@@H](F)C5)C4)nn3)c(O)c2)ncn1` [Compound 408, 5-(6-methoxypyrimidin-4-yl)-2-{6-[(3S)-3-{[(1s,3s)-3-fluorocyclobutyl]amino}pyrrolidin-1-yl]pyridazin-3-yl}phenol], the AC50 in experiment [1] (setting [6]) and in experiment [2] (setting [6]) was 0.1 to 1 µM in each case. In addition, the concentration for half-maximal inhibition (IC50) in experiment [1] (setting [7]) is below 0.1 µM; in experiment [1] (setting [8]) it was below 0.1 µM; in experiment [2] (setting [9]), 0.1 to 1 µM; in experiment [2] (setting [10]), 0.1 to 1 µM; in experiment [3] it was 0.1 to 1 µM; in experiment [4] (Homo sapiens) it was below 0.1 µM.

On to `COc1cc(-c2ccc(-c3cc(C#N)c(OC4CC(C)(C)NC(C)(C)C4)nn3)c(O)c2)ncn1` [Compound 425], for which the AC50 in experiment [1] (setting [6]) and in experiment [2] (setting [6]) was 1 to 10 µM each time. For the same compound, the half-maximal inhibitory concentration (IC50) in experiment [1] (setting [7]) is 0.1 to 1 µM; in experiment [1] (setting [8]) it was 0.1 to 1 µM; in experiment [2] (setting [9]), 1 to 10 µM; in experiment [2] (setting [10]), 1 to 10 µM; in experiment [3], 1 to 10 µM; in experiment [4] (Homo sapiens), 0.1 to 1 µM.

In the case of `COc1cc(-c2ccc(-c3ccc(N4CCC(NC5CCC5)C4)nn3)c(O)c2)ccn1` (stereo not shown) [Compound 305], the AC50 in experiment [1] (setting [6]) was in the range of 0.1 to 1 µM; in experiment [2] (setting [6]) it was 1 to 10 µM. Moreover, the half-inhibitory concentration (IC50) in experiment [1] (setting [7]) is 0.1 to 1 µM; in experiment [1] (setting [8]), 0.1 to 1 µM; in experiment [2] (setting [9]), 1 to 10 µM; in experiment [2] (setting [10]), 1 to 10 µM; in experiment [3] it was 1 to 10 µM; in experiment [4] (Homo sapiens) it was 0.1 to 1 µM.

For `Oc1cc(-c2cn[nH]c2)ccc1-c1ccc(N2CC[C@H](NC3CC3)C2)nn1` [Compound 104, 2-{6-[(3S)-3-(cyclopropylamino)pyrrolidin-1-yl]pyridazin-3-yl}-5-(1H-pyrazol-4-yl)phenol; ethane], the AC50 in experiment [1] (setting [6]) was below 0.1 µM; in experiment [2] (setting [6]), 0.1 to 1 µM. Moreover, the IC50 in experiment [1] (setting [7]) was below 0.1 µM; in experiment [1] (setting [8]), below 0.1 µM; in experiment [2] (setting [9]), 0.1 to 1 µM; in experiment [2] (setting [10]) it was 0.1 to 1 µM; in experiment [3], 0.1 to 1 µM; in experiment [4] (Homo sapiens) it was below 0.1 µM.

Regarding `COc1nc(-c2ccc(N3CCC(NC4CCC4)C3)nn2)ccc1-c1cnc(C)s1` (stereo not shown) [Compound 374], the AC50 in experiment [1] (setting [6]) was 0.1 to 1 µM; in experiment [2] (setting [6]), 1 to 10 µM. The IC50 in experiment [1] (setting [7]) is 0.1 to 1 µM; in experiment [1] (setting [8]) it was 0.1 to 1 µM; in experiment [2] (setting [9]) it was 0.1 to 1 µM; in experiment [2] (setting [10]) it was 0.1 to 1 µM; in experiment [3], 0.1 to 1 µM; in experiment [4] (Homo sapiens), below 0.1 µM.

With `COc1cncc(-c2cc(O)c(-c3ccc(N4CC[C@@H](NC5CCC5)C4)nn3)cc2F)c1` [Compound 225, 2-{6-[(3R)-3-(cyclobutylamino)pyrrolidin-1-yl]pyridazin-3-yl}-4-fluoro-5-(5-methoxypyridin-3-yl)phenol], the concentration at half-maximal activity (AC50) in experiment [1] (setting [6]) and in experiment [2] (setting [6]) was above 10 µM throughout. Besides, the half-inhibitory concentration (IC50) in experiment [1] (setting [7]), in experiment [1] (setting [8]), in experiment [2] (setting [9]), in experiment [2] (setting [10]), in experiment [3] and in experiment [4] (Homo sapiens) was above 10 µM in each case.

`Cc1ncc(-c2cc(O)c(-c3ccc(N4CC[C@H](NCC5CC5)C4)nn3)cc2F)s1` [Compound 393]: the AC50 in experiment [1] (setting [6]) and in experiment [2] (setting [6]) was below 0.1 µM throughout. Moreover, the IC50 in experiment [1] (setting [7]), in experiment [1] (setting [8]), in experiment [2] (setting [9]), in experiment [2] (setting [10]), in experiment [3] and in experiment [4] (Homo sapiens) was below 0.1 µM throughout.

For `CC(C)(C)N[C@@H]1CCN(c2ccc(-c3ccc(-c4cn[nH]c4)cc3O)nn2)C1` [Compound 262], the AC50 in experiment [1] (setting [6]) and in experiment [2] (setting [6]) was below 0.1 µM throughout. Besides, the half-inhibitory concentration (IC50) in experiment [1] (setting [7]), in experiment [1] (setting [8]), in experiment [2] (setting [9]), in experiment [2] (setting [10]), in experiment [3] and in experiment [4] (Homo sapiens) was below 0.1 µM each time.

As for `COc1cc(-c2cc(O)c(-c3ccc(N4CCC(C)(NC5CCC5)C4)nn3)cc2F)cnn1` (stereo not shown) [Compound 310, 2-{6-[3-(cyclobutylamino)-3-methylpyrrolidin-1-yl]pyridazin-3-yl}-4-fluoro-5-(6-methoxypyridazin-4-yl)phenol], the AC50 in experiment [1] (setting [6]) and in experiment [2] (setting [6]) was 0.1 to 1 µM in each case. Besides, the IC50 is below 0.1 µM in experiment [1] (setting [7]); below 0.1 µM in experiment [1] (setting [8]); 0.1 to 1 µM in experiment [2] (setting [9]); 0.1 to 1 µM in experiment [2] (setting [10]); 0.1 to 1 µM in experiment [3]; below 0.1 µM in experiment [4] (Homo sapiens).

On to `Cc1nsc(-c2cc(O)c(-c3ccc(N4CC[C@H](NCC5CC5)C4)nn3)cc2F)n1` [Compound 432], for which the AC50 in experiment [1] (setting [6]) and in experiment [2] (setting [6]) was 0.1 to 1 µM throughout. In addition, the concentration for half-maximal inhibition (IC50) is below 0.1 µM in experiment [1] (setting [7]); below 0.1 µM in experiment [1] (setting [8]); 1 to 10 µM in experiment [2] (setting [9]); 1 to 10 µM in experiment [2] (setting [10]); 0.1 to 1 µM in experiment [3]; below 0.1 µM in experiment [4] (Homo sapiens).

With `COc1cc(-c2ccc(-c3cc(C#N)c(OC4CC(C)(C)NC(C)(C)C4)nn3)c(O)c2)cnn1` [Compound 424], the AC50 is 0.1 to 1 µM in experiment [1] (setting [6]) and 1 to 10 µM in experiment [2] (setting [6]). Further, the IC50 was in the range of 0.1 to 1 µM in experiment [1] (setting [7]); 0.1 to 1 µM in experiment [1] (setting [8]); 1 to 10 µM in experiment [2] (setting [9]); 1 to 10 µM in experiment [2] (setting [10]); 1 to 10 µM in experiment [3]; 0.1 to 1 µM in experiment [4] (Homo sapiens).
